Key:
[1] = target: CYP2C19 (Homo sapiens (Human), UniProt P33261); assay: CYP inhibitory activity; assay type: in vitro ADME; conditions: read-out: CYP % activity at 10 μM concentration 2C19
Protocol: (§1) 5 derivatives were evaluated for in vitro metabolic stability in liver microsomes from three different species (human, dog, mouse) and for inhibitory activity against 5 representative cytochrome P450 enzymes (CYPs)(Table 3). In terms of liver microsomal stability, the 2′-pyridyl group is more suitable than the α-methyl-4′-pyridyl group as the terminal aromatic group at position 6, and the aminopyrimidyl group is better than the aminopyridyl group as a substituent at position 2.

[2] = target: CYP2C9 (Homo sapiens (Human), UniProt P11712); assay: CYP inhibitory activity; assay type: in vitro ADME; conditions: read-out: CYP % activity at 10 μM concentration 2C9
Protocol: as §1

[3] = target: CYP2D6 (Homo sapiens (Human), UniProt P10635); assay: CYP inhibitory activity; assay type: in vitro ADME; conditions: read-out: CYP % activity at 10 μM concentration 2D6
Protocol: as §1

[4] = target: CYP3A4 (Homo sapiens (Human), UniProt P08684); assay: CYP inhibitory activity; assay type: in vitro ADME; conditions: read-out: CYP % activity at 10 μM concentration 3A4
Protocol: as §1

[5] = target: CDK18/cyclin Y (PCTK3) (Homo sapiens (Human), UniProt Q07002); assay: Kinome-wide profiling; assay type: biochemical; conditions: read-out: % Residual Activity (mean)
[6] = target: FES/FPS (Homo sapiens (Human), UniProt P07332); assay: Kinome-wide profiling; assay type: biochemical; conditions: read-out: % Residual Activity (mean)
[7] = target: PAK4 (Homo sapiens (Human), UniProt O96013); assay: Kinome-wide profiling; assay type: biochemical; conditions: read-out: % Residual Activity (mean)
[8] = target: EPHB1 (Homo sapiens (Human), UniProt P54762); assay: Kinome-wide profiling; assay type: biochemical; conditions: read-out: % Residual Activity (mean)
[9] = target: TAOK3/JIK (Homo sapiens (Human), UniProt Q9H2K8); assay: Kinome-wide profiling; assay type: biochemical; conditions: read-out: % Residual Activity (mean)
Chain of TAOK3/JIK (Q9H2K8 whole entry): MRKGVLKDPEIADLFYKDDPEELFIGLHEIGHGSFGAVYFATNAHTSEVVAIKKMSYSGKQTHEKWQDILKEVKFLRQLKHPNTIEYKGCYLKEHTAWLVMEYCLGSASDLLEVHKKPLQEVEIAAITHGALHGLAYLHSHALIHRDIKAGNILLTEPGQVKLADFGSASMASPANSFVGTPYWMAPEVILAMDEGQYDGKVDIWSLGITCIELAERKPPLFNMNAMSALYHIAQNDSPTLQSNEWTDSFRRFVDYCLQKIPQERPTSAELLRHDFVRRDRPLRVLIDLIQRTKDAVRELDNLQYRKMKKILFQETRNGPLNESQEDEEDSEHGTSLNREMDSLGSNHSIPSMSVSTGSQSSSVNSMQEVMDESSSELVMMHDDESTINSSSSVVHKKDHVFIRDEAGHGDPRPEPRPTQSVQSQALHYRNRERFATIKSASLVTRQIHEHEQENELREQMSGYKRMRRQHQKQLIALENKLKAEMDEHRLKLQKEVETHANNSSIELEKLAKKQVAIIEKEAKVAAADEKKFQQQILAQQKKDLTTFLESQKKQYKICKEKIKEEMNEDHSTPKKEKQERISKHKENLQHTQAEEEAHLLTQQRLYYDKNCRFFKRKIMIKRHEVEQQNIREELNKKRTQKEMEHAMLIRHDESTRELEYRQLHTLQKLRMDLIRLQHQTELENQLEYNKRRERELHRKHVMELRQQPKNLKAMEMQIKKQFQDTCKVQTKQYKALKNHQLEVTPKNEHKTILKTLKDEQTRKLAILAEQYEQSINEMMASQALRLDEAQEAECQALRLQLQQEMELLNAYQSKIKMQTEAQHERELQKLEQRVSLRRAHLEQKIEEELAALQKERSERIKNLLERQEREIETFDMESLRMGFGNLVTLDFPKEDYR

[10] = target: CDK6/cyclin D1 (Homo sapiens (Human), UniProt Q00534); assay: Kinome-wide profiling; assay type: biochemical; conditions: read-out: % Residual Activity (mean)
Chain of CDK6/cyclin D1 (Q00534 whole entry): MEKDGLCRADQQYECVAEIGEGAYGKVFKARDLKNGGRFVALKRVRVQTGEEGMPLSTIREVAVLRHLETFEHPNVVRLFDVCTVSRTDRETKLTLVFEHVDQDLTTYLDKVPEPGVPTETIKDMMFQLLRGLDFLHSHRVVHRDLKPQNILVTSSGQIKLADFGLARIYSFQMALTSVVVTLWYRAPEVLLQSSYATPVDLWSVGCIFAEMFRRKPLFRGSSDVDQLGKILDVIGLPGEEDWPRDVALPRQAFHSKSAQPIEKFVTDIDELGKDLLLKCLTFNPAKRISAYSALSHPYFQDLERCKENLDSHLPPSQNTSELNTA
Chain of CDK6/cyclin D1 (P24385 whole entry partner): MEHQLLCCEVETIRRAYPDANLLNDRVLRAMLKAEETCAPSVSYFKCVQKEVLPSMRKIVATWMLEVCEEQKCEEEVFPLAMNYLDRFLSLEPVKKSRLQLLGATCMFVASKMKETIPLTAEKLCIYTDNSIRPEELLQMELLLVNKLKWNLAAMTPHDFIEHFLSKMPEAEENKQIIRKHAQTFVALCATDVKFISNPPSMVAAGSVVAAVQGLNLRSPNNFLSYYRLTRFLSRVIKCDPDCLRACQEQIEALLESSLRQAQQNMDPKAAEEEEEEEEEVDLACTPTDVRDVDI

[11] = target: CK1epsilon (Homo sapiens (Human), UniProt P49674); assay: Kinome-wide profiling; assay type: biochemical; conditions: read-out: % Residual Activity (mean)
[12] = target: CDK4/cyclin D1 (Homo sapiens (Human), UniProt P11802); assay: Kinome-wide profiling; assay type: biochemical; conditions: read-out: % Residual Activity (mean)
[13] = target: STK33 (Homo sapiens (Human), UniProt Q9BYT3); assay: Kinome-wide profiling; assay type: biochemical; conditions: read-out: % Residual Activity (mean)
Chain of STK33 (Q9BYT3 whole entry): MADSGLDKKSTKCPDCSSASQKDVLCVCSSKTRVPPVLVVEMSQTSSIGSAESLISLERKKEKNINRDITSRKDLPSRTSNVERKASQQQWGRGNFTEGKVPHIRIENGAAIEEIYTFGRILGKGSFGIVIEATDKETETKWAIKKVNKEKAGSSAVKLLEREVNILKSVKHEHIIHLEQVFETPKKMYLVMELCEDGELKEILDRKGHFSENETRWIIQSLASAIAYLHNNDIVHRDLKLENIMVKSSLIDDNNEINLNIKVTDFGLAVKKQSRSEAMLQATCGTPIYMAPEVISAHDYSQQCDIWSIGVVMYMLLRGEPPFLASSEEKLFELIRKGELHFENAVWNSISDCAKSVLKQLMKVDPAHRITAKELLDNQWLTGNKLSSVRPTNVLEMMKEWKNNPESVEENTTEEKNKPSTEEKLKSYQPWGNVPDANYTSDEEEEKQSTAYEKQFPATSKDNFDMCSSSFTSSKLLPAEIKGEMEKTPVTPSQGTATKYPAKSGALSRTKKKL

[14] = target: MAST3 (Homo sapiens (Human), UniProt O60307); assay: Kinome-wide profiling; assay type: biochemical; conditions: read-out: % Residual Activity (mean)
[15] = target: JNK3 (Homo sapiens (Human), UniProt P53779); assay: Kinome-wide profiling; assay type: biochemical; conditions: read-out: % Residual Activity (mean)
[16] = target: ERN1/IRE1 (Homo sapiens (Human), UniProt O75460); assay: Kinome-wide profiling; assay type: biochemical; conditions: read-out: % Residual Activity (mean)
Chain of ERN1/IRE1 (O75460 19-977): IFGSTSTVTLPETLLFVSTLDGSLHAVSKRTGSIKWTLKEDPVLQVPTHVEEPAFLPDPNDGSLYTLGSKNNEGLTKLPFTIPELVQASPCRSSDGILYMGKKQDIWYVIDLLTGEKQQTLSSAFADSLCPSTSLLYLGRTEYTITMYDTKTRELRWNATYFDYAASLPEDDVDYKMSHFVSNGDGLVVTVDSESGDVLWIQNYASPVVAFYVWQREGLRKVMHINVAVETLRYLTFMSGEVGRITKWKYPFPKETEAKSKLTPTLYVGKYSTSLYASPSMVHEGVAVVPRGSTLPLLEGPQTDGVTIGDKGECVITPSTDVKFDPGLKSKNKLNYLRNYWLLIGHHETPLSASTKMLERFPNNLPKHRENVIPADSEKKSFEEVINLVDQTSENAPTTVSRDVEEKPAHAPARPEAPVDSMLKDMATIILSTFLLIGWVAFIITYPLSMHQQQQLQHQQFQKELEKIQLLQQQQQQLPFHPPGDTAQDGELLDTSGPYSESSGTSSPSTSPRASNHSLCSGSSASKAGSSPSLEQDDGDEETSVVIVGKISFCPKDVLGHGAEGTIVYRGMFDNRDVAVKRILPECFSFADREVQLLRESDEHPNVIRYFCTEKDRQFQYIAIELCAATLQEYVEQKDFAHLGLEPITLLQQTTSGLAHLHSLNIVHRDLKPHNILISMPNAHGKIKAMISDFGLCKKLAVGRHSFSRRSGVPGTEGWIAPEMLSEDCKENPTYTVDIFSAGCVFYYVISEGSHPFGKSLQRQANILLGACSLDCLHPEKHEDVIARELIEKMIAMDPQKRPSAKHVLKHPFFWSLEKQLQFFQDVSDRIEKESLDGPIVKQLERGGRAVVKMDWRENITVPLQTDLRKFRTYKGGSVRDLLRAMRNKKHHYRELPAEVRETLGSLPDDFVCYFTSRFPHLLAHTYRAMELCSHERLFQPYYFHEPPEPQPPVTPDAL

[17] = target: CDK6/cyclin D2 (Homo sapiens (Human), UniProt Q00534); assay: Kinome-wide profiling; assay type: biochemical; conditions: read-out: % Residual Activity (mean)
Chain of CDK6/cyclin D2 (Q00534 whole entry): as the sequence (Q00534 whole entry) above
Chain of CDK6/cyclin D2 (P30279 whole entry partner): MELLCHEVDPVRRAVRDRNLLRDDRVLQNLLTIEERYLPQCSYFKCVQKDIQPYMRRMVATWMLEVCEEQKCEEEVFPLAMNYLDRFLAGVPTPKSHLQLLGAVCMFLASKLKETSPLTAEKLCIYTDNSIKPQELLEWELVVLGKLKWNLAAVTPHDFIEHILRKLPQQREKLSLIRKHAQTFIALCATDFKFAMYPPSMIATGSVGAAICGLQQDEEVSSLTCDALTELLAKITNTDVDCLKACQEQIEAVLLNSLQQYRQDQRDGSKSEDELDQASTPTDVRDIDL

[18] = target: SRPK1 (Homo sapiens (Human), UniProt Q96SB4); assay: Kinome-wide profiling; assay type: biochemical; conditions: read-out: % Residual Activity (mean)
[19] = target: BRAF (Homo sapiens (Human), UniProt P15056); assay: Kinome-wide profiling; assay type: biochemical; conditions: read-out: % Residual Activity (mean)
[20] = target: LYN (Homo sapiens (Human), UniProt P07948); assay: Kinome-wide profiling; assay type: biochemical; conditions: read-out: % Residual Activity (mean)
[21] = target: IKKa/CHUK (Homo sapiens (Human), UniProt O15111); assay: Kinome-wide profiling; assay type: biochemical; conditions: read-out: % Residual Activity (mean)
[22] = target: DCAMKL1 (Homo sapiens (Human), UniProt O15075); assay: Kinome-wide profiling; assay type: biochemical; conditions: read-out: % Residual Activity (mean)
[23] = target: LIMK2 (Homo sapiens (Human), UniProt P53671); assay: Kinome-wide profiling; assay type: biochemical; conditions: read-out: % Residual Activity (mean)
[24] = target: ARAF (Homo sapiens (Human), UniProt P10398); assay: Kinome-wide profiling; assay type: biochemical; conditions: read-out: % Residual Activity (mean)
[25] = target: MARK1 (Homo sapiens (Human), UniProt Q9P0L2); assay: Kinome-wide profiling; assay type: biochemical; conditions: read-out: % Residual Activity (mean)
[26] = target: WNK1 (Homo sapiens (Human), UniProt Q9H4A3); assay: Kinome-wide profiling; assay type: biochemical; conditions: read-out: % Residual Activity (mean)
[27] = target: P38a/MAPK14 (Homo sapiens (Human), UniProt Q16539); assay: Kinome-wide profiling; assay type: biochemical; conditions: read-out: % Residual Activity (mean)
[28] = target: PKCIOTA (Homo sapiens (Human), UniProt P41743); assay: Kinome-wide profiling; assay type: biochemical; conditions: read-out: % Residual Activity (mean)
[29] = target: DDR2 (Homo sapiens (Human), UniProt Q16832); assay: Kinome-wide profiling; assay type: biochemical; conditions: read-out: % Residual Activity (mean)
[30] = target: VRK1 (Homo sapiens (Human), UniProt Q99986); assay: Kinome-wide profiling; assay type: biochemical; conditions: read-out: % Residual Activity (mean)
[31] = target: DYRK4 (Homo sapiens (Human), UniProt Q9NR20); assay: Kinome-wide profiling; assay type: biochemical; conditions: read-out: % Residual Activity (mean)
[32] = target: PKCb1 (Homo sapiens (Human), UniProt P05771); assay: Kinome-wide profiling; assay type: biochemical; conditions: read-out: % Residual Activity (mean)
[33] = target: TNK1 (Homo sapiens (Human), UniProt Q13470); assay: Kinome-wide profiling; assay type: biochemical; conditions: read-out: % Residual Activity (mean)
[34] = target: ULK3 (Homo sapiens (Human), UniProt Q6PHR2); assay: Kinome-wide profiling; assay type: biochemical; conditions: read-out: % Residual Activity (mean)
Chain of ULK3 (Q6PHR2 whole entry): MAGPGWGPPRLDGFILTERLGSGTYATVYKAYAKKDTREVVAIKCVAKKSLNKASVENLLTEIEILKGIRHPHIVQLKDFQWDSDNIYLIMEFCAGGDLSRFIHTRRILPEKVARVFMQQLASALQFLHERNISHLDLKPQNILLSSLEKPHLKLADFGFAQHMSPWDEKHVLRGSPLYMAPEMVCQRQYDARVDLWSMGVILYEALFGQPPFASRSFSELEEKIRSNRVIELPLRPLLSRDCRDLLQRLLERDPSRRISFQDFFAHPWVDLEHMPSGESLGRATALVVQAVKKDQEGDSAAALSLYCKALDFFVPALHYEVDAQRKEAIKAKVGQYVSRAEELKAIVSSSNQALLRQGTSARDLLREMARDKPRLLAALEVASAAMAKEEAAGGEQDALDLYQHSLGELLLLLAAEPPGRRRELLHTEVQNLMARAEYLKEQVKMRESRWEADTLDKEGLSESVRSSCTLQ

[35] = target: MKK4 (Homo sapiens (Human), UniProt P45985); assay: Kinome-wide profiling; assay type: biochemical; conditions: read-out: % Residual Activity (mean)
Chain of MKK4 (P45985 whole entry): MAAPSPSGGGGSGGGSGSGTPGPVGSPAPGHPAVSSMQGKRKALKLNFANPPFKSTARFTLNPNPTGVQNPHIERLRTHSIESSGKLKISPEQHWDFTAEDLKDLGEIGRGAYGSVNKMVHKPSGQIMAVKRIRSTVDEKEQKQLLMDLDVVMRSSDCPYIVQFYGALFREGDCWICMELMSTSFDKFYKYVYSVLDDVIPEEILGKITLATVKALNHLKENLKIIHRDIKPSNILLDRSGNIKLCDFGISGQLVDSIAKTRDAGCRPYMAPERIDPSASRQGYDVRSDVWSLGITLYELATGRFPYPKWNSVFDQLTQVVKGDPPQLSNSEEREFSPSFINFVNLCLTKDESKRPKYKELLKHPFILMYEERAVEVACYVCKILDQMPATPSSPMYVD

[36] = target: SRMS (Homo sapiens (Human), UniProt Q9H3Y6); assay: Kinome-wide profiling; assay type: biochemical; conditions: read-out: % Residual Activity (mean)
Chain of SRMS (Q9H3Y6 whole entry): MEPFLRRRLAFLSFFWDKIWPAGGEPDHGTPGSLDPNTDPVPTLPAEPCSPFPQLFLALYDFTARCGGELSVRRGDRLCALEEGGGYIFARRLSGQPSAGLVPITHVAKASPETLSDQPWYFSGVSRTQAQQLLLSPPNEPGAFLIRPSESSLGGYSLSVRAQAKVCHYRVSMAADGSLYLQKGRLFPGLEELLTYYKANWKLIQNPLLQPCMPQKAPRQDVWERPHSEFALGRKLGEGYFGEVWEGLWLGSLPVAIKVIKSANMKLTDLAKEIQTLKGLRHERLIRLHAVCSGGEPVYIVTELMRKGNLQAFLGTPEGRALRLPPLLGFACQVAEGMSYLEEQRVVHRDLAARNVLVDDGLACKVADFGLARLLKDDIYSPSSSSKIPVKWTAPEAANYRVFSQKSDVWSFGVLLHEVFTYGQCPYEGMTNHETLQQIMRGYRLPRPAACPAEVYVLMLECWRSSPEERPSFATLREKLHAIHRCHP

CCn1cnc2c(NCc3ccc(-c4ccccn4)nc3)nc(-c3ccc(N)nc3)nc21 [Example 53, N-([2,2′-bipyridin]-5-ylmethyl)-2-(6-aminopyridin-3-yl)-9-ethyl-9H-purin-6-amine]
activity at 10 µM [1]: 68.1%
activity at 10 µM [2]: 57.9%
activity at 10 µM [3]: 81%
activity at 10 µM [4]: 43%
remaining activity at 10 µM [5]: 2.46%
remaining activity at 10 µM [6]: 6.37%
remaining activity at 10 µM [7]: 12.9%
remaining activity at 10 µM [8]: 13.6%
remaining activity at 10 µM [9]: 23.1%
remaining activity at 10 µM [10]: 24.2%
remaining activity at 10 µM [11]: 29.8%
remaining activity at 10 µM [12]: 33.5%
remaining activity at 10 µM [13]: 33.5%
remaining activity at 10 µM [14]: 39.3%
remaining activity at 10 µM [15]: 48.7%
remaining activity at 10 µM [16]: 50.8%
remaining activity at 10 µM [17]: 51.5%
remaining activity at 10 µM [18]: 54.3%
remaining activity at 10 µM [19]: 60.8%
remaining activity at 10 µM [20]: 65.7%
remaining activity at 10 µM [21]: 71.5%
remaining activity at 10 µM [22]: 72.6%
remaining activity at 10 µM [23]: 76.5%
remaining activity at 10 µM [24]: 79.5%
remaining activity at 10 µM [25]: 81.5%
remaining activity at 10 µM [26]: 82.5%
remaining activity at 10 µM [27]: 84.2%
remaining activity at 10 µM [28]: 86.1%
remaining activity at 10 µM [29]: 87.2%
remaining activity at 10 µM [30]: 87.3%
remaining activity at 10 µM [31]: 89.3%
remaining activity at 10 µM [32]: 89.9%
remaining activity at 10 µM [33]: 91.3%
remaining activity at 10 µM [34]: 91.8%
remaining activity at 10 µM [35]: 96.4%
remaining activity at 10 µM [36]: 96.8%

— US20250101023A1, “HETEROARYL DERIVATIVE AND USES THEREOF” (IUCF-HYU (INDUSTRY-UNIVERSITY COOPERATION FOUNDATION …, priority 2022, published 2025)
